Measured values as given in patent US20100069450A1, “SALT OF 3-BENZYL-2-METHYL-2,3,3A,4,5,6,7, 7A- OCTAHYDROBENZO[D]ISOXAZOL-4-ONE” (ABIOGEN PHARMA S.P.A, priority 2006, published 2010).
Where a name gives a salt, the structure may show the parent alone. Read-outs that look alike come from different tables or passages of the source.

Assays:
[1] = Stability test of BTG 1640 salts: purity under preservation conditions; assay type: physicochemical
Protocol: Samples of 100 mg each of BTG 1640 hydrochloride were subjected to the following preservation conditions:
The purities were then analyzed periodically, initially every three months, in order to underline possible variations.
Samples of 100 mg each of BTG 1640 fumarate prepared according to example 1C were subjected to the following preservation conditions:
Quarterly and in an overall period of nine months its purity was then analyzed in order to underline possible variations. The results in the following Table 3 were obtained:
As comparison other salts of BTG 1640 were prepared, and exactly: • BTG 1640 methanesulphonate • BTG 1640 maleate • BTG 1640 succinate following the procedure indicated in example 1 and substituting methanesolphonic, maleic and succinic acids for fumaric acid.
The stabilities were then evaluated by subjecting samples of 100 mg of each salt to the following analogous preservation conditions:
Quarterly and in an overall period of nine months their purity was then analyzed in order to underline possible variations.
The obtained results, together with those obtained in Example 2 for hydrochloride, in Example 3 for fumarate in order to make easier the comparison, were in Table 5 and represented in FIGS. 5-8.

[2] = Stability test of BTG 1640 salts: evaluation of total impurities; assay type: physicochemical
Protocol: Contemporaneously, the impurity analysis in the conditions a)-d) of T/% RH were carried out.
As a confirmation of such evidence, a test for the evaluation of the impurity percentage of the sample subjected to the same conditions a)-d) of T/% RH was parallely carried out. The experimental values in Table 4 were obtained.

[3] = Absorption kinetic: plasma concentration of BTG 1640 after oral gavage; assay type: in vivo, rats Sprague Dawley; details: rat, in vivo, po, 10 mg/kg
Protocol: Absorption extent and rate of molecule BTG 1640 in its forms of fumarate and hydrochloride salts were evaluated.
With this intent, the two salts were dispersed in an aqueous suspension of arabic gum at 5% thus obtaining two formulations, each one orally administered through oesophageous gavage at dose of 10 mg/kg (expressed as free base of BTG 1640) to five rats Sprague Dawley.
Plasma concentration of molecule BTG 1640 was determined at different time points.

female CD-1 mice = experiment: Acute oral toxicity; assay type: in vivo
Protocol: Acute oral toxicity of salts hydrochloride and fumarate of BTG-1640 was evaluated.
The two salts were dispersed in an aqueous suspension, thus obtaining two formulations, each one orally administered through oesophageous gavage at dose of 2000 mg/kg bw (expressed as free base of BTG 1640) to one of two groups comprising three female CD-1 mice per group.
The observation lasted 14 days.

[4] = T = 25° C., humidity 60% RH, time 0
[5] = T = 25° C., humidity 60% RH, time 3 (months)
[6] = T = 25° C., humidity 60% RH, time 6 (months)
[7] = T = 25° C., humidity 60% RH, time 9 (months)
[8] = T = 30° C., humidity 65% RH, time 0
[9] = T = 30° C., humidity 65% RH, time 3 (months)
[10] = T = 30° C., humidity 65% RH, time 6 (months)
[11] = T = 30° C., humidity 65% RH, time 9 (months)
[12] = T = 40° C., humidity 75% RH, time 0
[13] = T = 40° C., humidity 75% RH, time 3 (months)
[14] = T = 40° C., humidity 75% RH, time 6 (months)
[15] = female CD-1 mice, oral gavage 2000 mg/kg bw

SMILES: CN1OC2CCCC(=O)C2C1Cc1ccccc1 [BTG 1640 fumarate, fumarate salt of rel-(3R,3aS,7aS)-3-benzyl-2-methyl-2,3,3a,4,5,6,7,7a-octahydrobenzo[d]isoxazol-4-one]
- Stability compared with BTG 1640 hydrochloride [1]: higher stability
- Purity % ([1]; T = 5° C., time 0): 99.5%
- Purity % ([1]; T = 5° C., time 3 (months)): 100.0%
- Purity % ([1]; T = 5° C., time 6 (months)): 100.0%
- Purity % ([1]; T = 5° C., time 9 (months)): 99.9%
- Purity % [1, 4]: 99.5%
- Purity % [1, 5]: 100.0%
- Purity % [1, 6]: 100.0%
- Purity % [1, 7]: 99.9%
- Purity % [1, 8]: 99.5%
- Purity % [1, 9]: 100.0%
- Purity % [1, 10]: 100.0%
- Purity % [1, 11]: 99.9%
- Purity % [1, 12]: 99.5%
- Purity % [1, 13]: 100.0%
- Purity % [1, 14]: 100.0%
- % impurities ([2]; T = 5° C., time 0): 0.49%
- % impurities ([2]; T = 5° C., time 3 (months)): 0.10%
- % impurities ([2]; T = 5° C., time 6 (months)): 0.10%
- % impurities ([2]; T = 5° C., time 9 (months)): 0.10%
- % impurities [2, 4]: 0.49%
- % impurities [2, 5]: 0.10%
- % impurities [2, 6]: 0.10%
- % impurities [2, 7]: 0.10%
- % impurities [2, 8]: 0.49%
- % impurities [2, 9]: 0.10%
- % impurities [2, 10]: 0.10%
- % impurities [2, 11]: 0.10%
- % impurities [2, 12]: 0.49%
- % impurities [2, 13]: 0.10%
- % impurities [2, 14]: 0.10%
- Impurities (in words) ([2]; condition d): 40° C./75% RH): invariable impurity profile
- concentration at 2 min ([3]; Sprague Dawley): 1070 ng/mL
- concentration at 5 min ([3]; Sprague Dawley): 2350 ng/mL
- concentration at 30 min ([3]; Sprague Dawley): 838 ng/mL
- concentration at 90 min ([3]; Sprague Dawley): 0 ng/mL
- concentration at 300 min ([3]; Sprague Dawley): 0 ng/mL
- Plasma concentration of free BTG 1640 with respect to hydrochloride [3]: not significantly higher
- availability of the active principle in the circulation [3]: more favourable
- Clinical signs (female CD-1 mice; [15]): quickly reversible neurological signs
- Histopathological examination of kidneys (female CD-1 mice; [15]): only a mild dilatation of convoluted tubules
- Toxicity compared with hydrochloride (female CD-1 mice; female mice, 2000 mg/kg bw): strongly less toxic

SMILES: CN1OC2CCCC(=O)C2C1Cc1ccccc1.O=C(O)/C=C\C(=O)O (stereo not shown) [BTG 1640 maleate]
- Purity % ([1]; T = 5° C., time 0): 99.8%
- Purity % ([1]; T = 5° C., time 3 (months)): 100.0%
- Purity % ([1]; T = 5° C., time 6 (months)): 100.0%
- Purity % ([1]; T = 5° C., time 9 (months)): 99.8%
- Purity % [1, 4]: 99.8%
- Purity % [1, 5]: 99.8%
- Purity % [1, 6]: 100.0%
- Purity % [1, 7]: 99.7%
- Purity % [1, 8]: 99.8%
- Purity % [1, 9]: 99.5%
- Purity % [1, 10]: 98.9%
- Purity % [1, 11]: 95.9%
- Purity % [1, 12]: 99.8%
- Purity % [1, 13]: 24.4%
- Degradation (in words) ([1]; condition c) 30° C./65% RH, at sixth month): considerable degradation
- Stability (in words) ([1]; condition d): 40° C. and 75% RH): degrades in unacceptable way
- Stability profile (in words) ([1]; conditions a) and b)): acceptable profile
- Stability compared with BTG 1640 hydrochloride ([1]; conditions a)-d)): even worse
- % impurities ([2]; T = 5° C., time 0): 0.23%
- % impurities ([2]; T = 5° C., time 3 (months)): 0.10%
- % impurities ([2]; T = 5° C., time 6 (months)): 0.10%
- % impurities ([2]; T = 5° C., time 9 (months)): 0.19%
- % impurities [2, 4]: 0.23%
- % impurities [2, 5]: 0.22%
- % impurities [2, 6]: 0.10%
- % impurities [2, 7]: 0.29%
- % impurities [2, 8]: 0.23%
- % impurities [2, 9]: 0.49%
- % impurities [2, 10]: 1.10%
- % impurities [2, 11]: 4.20%
- % impurities [2, 12]: 0.23%
- % impurities [2, 13]: 75.60%

SMILES: CN1OC2CCCC(=O)C2C1Cc1ccccc1.CS(=O)(=O)O (stereo not shown) [BTG 1640 methanesulphonate]
- Purity % ([1]; T = 5° C., time 0): 99.6%
- Purity % ([1]; T = 5° C., time 3 (months)): 99.5%
- Purity % ([1]; T = 5° C., time 6 (months)): 99.3%
- Purity % ([1]; T = 5° C., time 9 (months)): 99.1%
- Purity % [1, 4]: 99.6%
- Purity % [1, 5]: 98.2%
- Purity % [1, 6]: 97.1%
- Purity % [1, 7]: 95.0%
- Purity % [1, 8]: 99.6%
- Purity % [1, 9]: 96.0%
- Purity % [1, 10]: 86.8%
- Purity % [1, 11]: 74.2%
- Purity % [1, 12]: 99.6%
- Purity % [1, 13]: 81.5%
- Purity % [1, 14]: 5.7%
- Stability compared with BTG 1640 hydrochloride ([1]; conditions a)-d)): even worse
- Degradation (in words) ([1]; conditions b)-d)): begins to degrade already after three months
- % impurities ([2]; T = 5° C., time 0): 0.42%
- % impurities ([2]; T = 5° C., time 3 (months)): 0.55%
- % impurities ([2]; T = 5° C., time 6 (months)): 0.74%
- % impurities ([2]; T = 5° C., time 9 (months)): 0.91%
- % impurities [2, 4]: 0.42%
- % impurities [2, 5]: 1.80%
- % impurities [2, 6]: 2.90%
- % impurities [2, 7]: 5.00%
- % impurities [2, 8]: 0.42%
- % impurities [2, 9]: 4.00%
- % impurities [2, 10]: 13.20%
- % impurities [2, 11]: 25.80%
- % impurities [2, 12]: 0.42%
- % impurities [2, 13]: 18.50%
- % impurities [2, 14]: 94.30%

SMILES: CN1OC2CCCC(=O)C2C1Cc1ccccc1.O=C(O)CCC(=O)O (stereo not shown) [BTG 1640 succinate]
- Purity % ([1]; T = 5° C., time 0): 99.2%
- Purity % ([1]; T = 5° C., time 3 (months)): 98.0%
- Purity % ([1]; T = 5° C., time 6 (months)): 98.1%
- Purity % ([1]; T = 5° C., time 9 (months)): 96.8%
- Purity % [1, 4]: 99.2%
- Purity % [1, 5]: 92.7%
- Purity % [1, 6]: 87.0%
- Purity % [1, 7]: 90.5%
- Purity % [1, 8]: 99.2%
- Purity % [1, 9]: 85.4%
- Purity % [1, 10]: 71.5%
- Purity % [1, 11]: 66.8%
- Purity % [1, 12]: 99.2%
- Purity % [1, 13]: 16.5%
- Stability compared with BTG 1640 hydrochloride ([1]; conditions a)-d)): even worse
- Degradation (in words) ([1]; conditions a)-d), from the third month): shows degradation at all observation conditions
- % impurities ([2]; T = 5° C., time 0): 0.77%
- % impurities ([2]; T = 5° C., time 3 (months)): 2.00%
- % impurities ([2]; T = 5° C., time 6 (months)): 1.90%
- % impurities ([2]; T = 5° C., time 9 (months)): 3.20%
- % impurities [2, 4]: 0.77%
- % impurities [2, 5]: 7.30%
- % impurities [2, 6]: 13.00%
- % impurities [2, 7]: 9.50%
- % impurities [2, 8]: 0.77%
- % impurities [2, 9]: 14.60%
- % impurities [2, 10]: 28.50%
- % impurities [2, 11]: 33.30%
- % impurities [2, 12]: 0.77%
- % impurities [2, 13]: 83.50%
